Assay results reported in patent publication US9040557B2, “Composition containing cinchonine as an active ingredient for preventing and treating obesity, dyslipidemia, fatty liver, or insulin resistance syndrome” (YONSEI UNIVERSITY TECHNOLOGY HOLDINGS, INC., priority 2010, dated 2015).
Marks after values point to notes of the source that are not given here.

Key:
[1] = tested on: P388 multidrug-resistant cells; settings: cited from earlier work
[2] = tested on: UCP3; assay: RT-PCR of visceral fat tissues: UCP3; format: in vivo, mice; settings: FIG. 6
Procedure: (§1) After adding 1 mL of Trizol agent (Invitrogen, USA) per 0.1 g of epididymal fat tissues, the mixture was homogenized and centrifuged at 12,000×g for 10 min at 4° C. The supernatant was transferred to a new tube and 200 μl of chloroform was added to the tube, followed by vortexing. The same procedure was repeated twice and then the supernatant was transferred to a new tube, followed by addition of isopropanol and the supernatant at 1:1 ratio. The mixture was vigorously shaken 10 times and then incubated for 10 min at room temperature, followed by centrifugation at 12,000×g for 10 min at 4° C. to remove the supernatant. After adding 1 mL of 70% ethanol to the remaining pellet, it was centrifuged at 7,500×g for 5 min at 4° C. After removing the ethanol, the RNA pellet contained in the tube was dried for 5 min at 4° C. and dissolved in nuclease-free water. The RNA concentration of sample was measured at a wavelength of 260 nm and 280 nm using a UV/VIS spectrophotometer (Beckman coulter, DU730) and the integrity of RNA sample was verified by agarose gel electrophoresis. The RNA sample obtained from the epididymal fat tissues was transcribed using oligo dT primer and SuperScript reverse transcriptase (GIBCO BRL, Gaithersburg, Md., USA) to synthesize cDNA. The PCR amplification was performed using the cDNA as templates and primers complementary to cDNA [NT] flanking sequence. […]

[3] = tested on: C57BL/6J mice; assay: Liver weight and lipid levels in liver tissue after 10 weeks of test diet; format: in vivo
Procedure: The obesity-inducing control diet used in the test was high-fat diet (HFD: 40% fat calorie, 17 g lard+3% corn oil/100 g diet). […] The normal diet (ND) was prepared according to the AIN-76 rodent diet composition (American Institute of Nutrition, Report of the American Institute of Nutrition ad hoc committee on standards for nutritional studies. J. Nutr., 107: 1340-1348, (1977)) (FIG. 1). (+)-Cinchonine was purchased from Sigma-Aldrich. 5-week-old male C57BL/6J mice (Orient, Korea) were accustomed to the laboratory environment for 1 week while feeding solid feed. Then, they were randomly divided into a high-fat diet group and a test group according to randomized block design and bred for a total of 10 weeks. The diet was given between 10 and 11 A.M. every day together with water. Food intake was measured every day and body weight was measured once a week. In order to avoid transient body weight increase after feed intake, body weight was measured 2 hr after removing the feed. […] Blood taken from the abdominal aorta was centrifuged at 1000×g for 15 minutes for the separation of plasma. Lipids were extracted from the liver tissue according to Folch et al.'s method Folch J et al., J Biol Chem, 226: 497-509 (1957)). […] After adding 5 mL of chloroform:methanol solution (2:1, v/v) to the homogenate and mixing well, the mixture was centrifuged at 1000×g for 10 minutes. […] After adding 3 mL of chloroform:methanol:0.05% CaCl2 (3:48:47, v/v/v) solution to the remaining pellets and mixing well for 1 minute, followed by centrifugation at 1000×g for 10 minutes, the resulting pellets were completely dried with nitrogen gas. The dried lipids were dissolved in 1 mL of methanol and then analyzed. The commercially available kits (Bio Clinical System, Korea) were used to measure the levels of triglyceride, cholesterol and free fatty acids of the liver tissue.

[4] = tested on: aP2; assay: RT-PCR of epididymal fat tissues: aP2; format: in vivo, mice; settings: CSID vs HFD, FIG. 4
Procedure: as §1

[5] = tested on: UCP1; assay: RT-PCR of visceral fat tissues: UCP1; format: in vivo, mice; settings: FIG. 6
Procedure: as §1

[6] = tested on: human platelets; settings: cited from earlier work
[7] = tested on: TNF-α; assay: RT-PCR of visceral fat tissues: TNF-α; format: in vivo, mice; settings: FIG. 5
Procedure: as §1

[8] = tested on: C/EBPα; assay: RT-PCR of epididymal fat tissues: C/EBPα; format: in vivo, mice; settings: CSID vs HFD, FIG. 4
[9] = tested on: C57BL/6J mice; assay: Biochemical analysis of plasma after 10 weeks of test diet; format: in vivo
Procedure: The obesity-inducing control diet used in the test was high-fat diet (HFD: 40% fat calorie, 17 g lard+3% corn oil/100 g diet). […] The normal diet (ND) was prepared according to the AIN-76 rodent diet composition (American Institute of Nutrition, Report of the American Institute of Nutrition ad hoc committee on standards for nutritional studies. J. Nutr., 107: 1340-1348, (1977)) (FIG. 1). (+)-Cinchonine was purchased from Sigma-Aldrich. 5-week-old male C57BL/6J mice (Orient, Korea) were accustomed to the laboratory environment for 1 week while feeding solid feed. Then, they were randomly divided into a high-fat diet group and a test group according to randomized block design and bred for a total of 10 weeks. The diet was given between 10 and 11 A.M. every day together with water. Food intake was measured every day and body weight was measured once a week. In order to avoid transient body weight increase after feed intake, body weight was measured 2 hr after removing the feed. […] Blood taken from the abdominal aorta was centrifuged at 1000×g for 15 minutes for the separation of plasma. […] Total cholesterol, triglyceride, free fatty acid and glucose levels in the plasma were measured twice for each using a commercially available kit (Bio Clinical System). The level of LDL+VLDL in plasma was calculated by subtracting HDL level from the total cholesterol level. The activities of ALT (alanine aminotransferase) and AST (aspartate aminotransferase) used as liver function indicator were measured using a commercially available kit (Bio Clinical System, Korea).

[10] = tested on: PPARγ2; assay: RT-PCR of epididymal fat tissues: PPARγ2; format: in vivo, mice; settings: CSID vs HFD, FIG. 4
Procedure: as §1

[11] = tested on: IL-6; assay: RT-PCR of visceral fat tissues: IL-6; format: in vivo, mice; settings: FIG. 5
Procedure: as §1

[12] = tested on: adrenorceptor and Ca^2+ channels; settings: cited from earlier work
[13] = tested on: Plasmodium falciparum; settings: cited from earlier work
[14] = tested on: C57BL/6J mice; assay: Body and visceral fat-pad weights after 10 weeks of test diet; format: in vivo; settings: 0.05% cinchonine in high-fat diet
Procedure: The obesity-inducing control diet used in the test was high-fat diet (HFD: 40% fat calorie, 17 g lard+3% corn oil/100 g diet). […] The normal diet (ND) was prepared according to the AIN-76 rodent diet composition (American Institute of Nutrition, Report of the American Institute of Nutrition ad hoc committee on standards for nutritional studies. J. Nutr., 107: 1340-1348, (1977)) (FIG. 1). (+)-Cinchonine was purchased from Sigma-Aldrich. 5-week-old male C57BL/6J mice (Orient, Korea) were accustomed to the laboratory environment for 1 week while feeding solid feed. Then, they were randomly divided into a high-fat diet group and a test group according to randomized block design and bred for a total of 10 weeks. The diet was given between 10 and 11 A.M. every day together with water. Food intake was measured every day and body weight was measured once a week. In order to avoid transient body weight increase after feed intake, body weight was measured 2 hr after removing the feed. […] Blood taken from the abdominal aorta was centrifuged at 1000×g for 15 minutes for the separation of plasma.

[15] = target: P-glycoprotein (Homo sapiens, UniProt P08183); settings: cited from earlier work
[16] = tested on: 3T3-L1 adipocyte precursor cells; assay: Inhibition of adipocyte differentiation, Oil-red O staining; format: cell-based, mouse; settings: 0.1, 1, 10, 50 and 100 μM, fourteen-day culture; for differentiation of 3T3-L1 adipocyte precursor cells: FIG. 1a; for content of intracellular fats stained with Oil-red O (O.D. at 600 nm): FIG. 1b
[17] = 0.05% cinchonine in high-fat diet
[18] = 0.05% cinchonine in high-fat diet, 10 weeks

Chain of P-glycoprotein (P08183 whole entry): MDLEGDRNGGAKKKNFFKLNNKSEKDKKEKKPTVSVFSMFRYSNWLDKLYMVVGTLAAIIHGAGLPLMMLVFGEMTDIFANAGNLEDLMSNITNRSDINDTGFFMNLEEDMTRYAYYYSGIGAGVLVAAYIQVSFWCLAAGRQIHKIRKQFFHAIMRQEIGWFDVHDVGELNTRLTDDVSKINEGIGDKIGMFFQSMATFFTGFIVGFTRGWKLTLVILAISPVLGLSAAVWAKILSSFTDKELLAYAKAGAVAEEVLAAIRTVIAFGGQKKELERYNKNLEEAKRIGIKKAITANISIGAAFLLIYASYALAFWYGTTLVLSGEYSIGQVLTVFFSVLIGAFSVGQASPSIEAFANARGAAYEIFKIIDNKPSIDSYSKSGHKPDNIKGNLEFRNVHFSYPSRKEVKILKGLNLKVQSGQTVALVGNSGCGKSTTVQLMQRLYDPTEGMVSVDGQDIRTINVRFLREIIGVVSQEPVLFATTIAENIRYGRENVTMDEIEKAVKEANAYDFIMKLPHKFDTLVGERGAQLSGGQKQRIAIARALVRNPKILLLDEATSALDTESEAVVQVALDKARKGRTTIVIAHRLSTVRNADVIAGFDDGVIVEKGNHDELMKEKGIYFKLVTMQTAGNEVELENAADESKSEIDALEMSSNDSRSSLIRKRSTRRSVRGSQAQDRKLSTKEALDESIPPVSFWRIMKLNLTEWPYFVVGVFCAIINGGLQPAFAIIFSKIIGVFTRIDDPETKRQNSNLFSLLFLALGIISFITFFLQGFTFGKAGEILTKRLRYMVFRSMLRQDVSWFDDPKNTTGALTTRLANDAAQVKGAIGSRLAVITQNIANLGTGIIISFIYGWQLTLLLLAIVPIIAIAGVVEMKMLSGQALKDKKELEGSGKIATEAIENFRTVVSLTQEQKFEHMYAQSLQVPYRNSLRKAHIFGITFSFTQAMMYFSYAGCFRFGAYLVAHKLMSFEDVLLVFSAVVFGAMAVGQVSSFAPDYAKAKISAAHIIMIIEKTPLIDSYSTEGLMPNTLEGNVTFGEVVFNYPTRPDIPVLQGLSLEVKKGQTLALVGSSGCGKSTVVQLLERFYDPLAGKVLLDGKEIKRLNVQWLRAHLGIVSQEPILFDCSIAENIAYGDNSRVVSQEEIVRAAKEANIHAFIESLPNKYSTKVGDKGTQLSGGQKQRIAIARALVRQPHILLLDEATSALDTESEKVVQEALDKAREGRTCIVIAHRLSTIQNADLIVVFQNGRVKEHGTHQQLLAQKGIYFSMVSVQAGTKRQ

SMILES: C=C[C@H]1C[N@@]2CC[C@H]1C[C@@H]2[C@@H](O)c1ccnc2ccccc12 [cinchonine, Cinchonine]
- apoptosis by suppressing transportation of drugs from P388 multidrug-resistant cells [1]: induce apoptosis
- HFD-induced decrease in expression of UCP3 [2]: significantly reversed
- decrease of cholesterol level in liver tissue as compared to HFD [3, 17]: 16%
- decrease of free fatty acid level in liver tissue as compared to HFD [3, 17]: 23%
- decrease of triglyceride level in liver tissue as compared to HFD [3, 17]: 16%
- reduction of absolute weight of liver as compared to HFD [3, 17]: 36%
- reduction of ratio of liver weight to body weight as compared to HFD [3, 17]: 25%
- Liver weight ([3]; CSID group): 1.4 ± 0.14^b g
- Liver weight (g/100 g body wt) ([3]; CSID group): 4.0 ± 0.12^b g/100 g body wt
- Cholesterol ([3]; liver tissue, CSID group): 109.9 ± 2.37^b μmol/g
- Free fatty acid ([3]; liver tissue, CSID group): 38.6 ± 3.52^b μEq/g
- Triglyceride ([3]; liver tissue, CSID group): 59.7 ± 2.26^b μmol/g
- aP2 gene expression (mRNA) [4]: significantly reduced expressions
- HFD-induced decrease in expression of UCP1 [5]: significantly reversed
- platelet aggregation, blocking Ca^2+ influx into human platelets [6]: inhibits platelet aggregation
- HFD-induced elevation in expression of TNF-α [7]: significantly reversed
- C/EBPα gene expression (mRNA) [8]: significantly reduced expressions
- decrease of plasma ALT activity as compared to HFD [9, 18]: 58%
- decrease of plasma AST activity as compared to HFD [9, 18]: 46%
- lower plasma LDL+VLDL level as compared to HFD [9, 18]: 33%
- lower plasma free fatty acid level as compared to HFD [9, 18]: 21%
- lower plasma total cholesterol level as compared to HFD [9, 18]: 30%
- lower plasma triglyceride level as compared to HFD [9, 18]: 24%
- reduction of fasting blood sugar level as compared to HFD [9, 18]: 27%
- lower plasma HDL cholesterol level as compared to HFD ([9]; group fed with the present composition vs high fat diet group): 25%
- ALT ([9]; plasma, CSID group, 10 weeks): 5.94 ± 0.78^c IU/L
- AST ([9]; plasma, CSID group, 10 weeks): 6.03 ± 0.28^b IU/L
- Free fatty acid ([9]; plasma, CSID group, 10 weeks): 685 ± 65.6^b uEq/L
- HDL cholesterol ([9]; plasma, CSID group, 10 weeks): 0.89 ± 0.04^b mmol/L
- Total cholesterol ([9]; plasma, CSID group, 10 weeks): 4.57 ± 0.26^b mmol/L
- Triglyceride ([9]; plasma, CSID group, 10 weeks): 0.68 ± 0.05^b mmol/L
- LDL + VLDL cholesterol ([9]; plasma, CSID group, 10 weeks, total cholesterol minus HDL): 3.68 ± 0.27^b mmol/L
- Glucose ([9]; plasma, fasting, CSID group, 10 weeks): 6.51 ± 0.62^b mmol/L
- PPARγ2 gene expression (mRNA) [10]: significantly reduced expressions
- HFD-induced elevation in expression of IL-6 [11]: significantly reversed
- antihypertensive effects by blocking adrenorceptor and Ca^2+ channels [12]: antihypertensive effects
- in vitro anti-malaria effects [13]: in vitro anti-malaria effects
- decrease in cumulative body weight gain as compared to HFD [14]: 39%
- decrease in final body weight as compared to HFD [14]: 20%
- reduction of epididymal fat-pad weight as compared to HFD [14]: 19%
- reduction of mesenteric fat-pad weight as compared to HFD [14]: 43%
- reduction of perirenal fat-pad weight as compared to HFD [14]: 45%
- reduction of retroperitoneal fat-pad weight as compared to HFD [14]: 15%
- reduction of total visceral fat weight as compared to HFD ([14]; p<0.001): 26%
- multi-drug resistance of cancer cells through P-glycoprotein binding [15]: improve multi-drug resistance
- differentiation of 3T3-L1 adipocyte precursor cells [16]: significantly decreases differentiation
- differentiation of 3T3-L1 adipocyte precursor cells ([16]; listed as (+)-cinchonine): decreased differentiation
- content of intracellular fats stained with Oil-red O (O.D. at 600 nm) [16]: decreased in a dose-dependent manner
- content of intracellular fats stained with Oil-red O (O.D. at 600 nm) ([16]; listed as (+)-cinchonine): decreased
